Results as given in patent publication US5998596A, “Inhibition of protein kinase activity by aptameric action of oligonucleotides” (The United States of America as represented by the …).
“Also recorded” adds a separate entry of the source.

Legend:
[1] = system: cellular phosphotyrosine content of K562 cells; assay: Western analysis of total cellular phosphotyrosine content after electroporation of K562 cells; format: cell-based, human; details: K562 cells electroporated with 100 μM ODN, one hour later
Description: One hundred micrograms of protein from cell lysates were separated on a 7% SDS polyacrylamide gel. Transfer was performed overnight at 50 volts, 4° C., in a 0.2 M glycine, 25 mM Tris, pH 8.3, 0.15% SDS, 20% methanol buffer, onto […] nitrocellulose (Schleicher and Schuell Inc.). For cellular phosphotyrosine blots, Western probing was performed as described previously, with modifications (SARTOR, et al, 1991). Briefly, membranes were blocked for 2 hours with 5% albumin in TTBS (20 mM Tris HCL, pH 7.6; 0.05% Tween 20; 0.9% sodium chloride), probed for 1 hour with antiphosphotyrosine antibody (Upstate Biotechnology Inc., Lake Placid, N.Y.) diluted 1:500 in TTBS, followed by rabbit anti-mouse antibody (Cappel Research Products) and then [^125 I] protein A Sepharose (Amersham Corp., Arlington Heights, Ill.). Membranes were exposed to Kodak X-OMAT AR film overnight at -70° C. with intensifying screens.
Electroporation was performed as described (40). Briefly, 1-5×10^6 cells in 1 ml of RPMI 1640 with 10% fetal calf serum were placed into 0.4 cm gap electroporation chambers and electroporated with a Cell-Porator Electroporation System 1 (all from GIBCO BRL, Grand Island, N.Y.) at 800 microfarrads, 300 volts, at room temperature. Cells were then incubated at 37° C. for 1 hour before manipulation.
In K562 cells p210^bcr-abl is a major kinase responsible for protein tyrosine phosphorylation (38, 39). Changes in enzyme activity are therefore reflected by changes in cellular phosphotyrosine content.

K562 cells = assay: K562 colony formation in soft agar; format: cell-based, human; details: 50 μM ODN, two weeks, not electroporated
Description: K562, NIH 3T3, and A431 cells were purchased from the American Type Culture Collection (Rockville, Md.). PC3M prostate cancer cells were a generous gift from J. Trepel (National Institutes of Health, Bethesda, Md.). K562 and PC3M cells were cultured in RPMI 1640 with 10% heat-inactivated fetal bovine serum (FBS; GIBCO BRL, Grand Island, N.Y.) while NIH 3T3 and A431 cells were cultured in Dulbecco's modified Eagle's medium (Biofluids, Rockville, Md.) with 10% heat inactivated FBS. Cells were maintained at 37° C., 6% carbon dioxide with biweekly media changes. For soft agar cloning, cells were suspended in 0.3% low melting temperature agarose (SeaPlaque FMC BioProducts, Rockland, Me.) in RPMI 1640 with 10% total calf serum and maintained as above.
To evaluate the effects of these various ODNs of K562 cell growth, both growth in liquid culture and growth in soft agar were examined. […] Cells were electroporated in the presence of 50 μM ODN and kept in liquid culture. For soft agar cloning experiments, cells were not electroporated, but were grown in the presence of 50 μM ODN for two weeks. Liquid cultures were replenished with fresh medium containing 50 μM ODN. Two weeks following incubation in liquid culture, the number of trypan blue-excluding cells was determined. No effect on cell growth in liquid culture could be observed with any ODN tested (data not shown).

p145^abl kinase = assay: Immunoprecipitation kinase assay of p145abl; format: biochemical
Description: The p210^bcr-abl kinase, src kinase and cdc-2 kinase were immunoprecipitated from K562 cells. The p145^abl kinase was immunoprecipitated from PC3M cells, PDGF receptor kinase from 3T3 cells, and EGF receptor kinase from A431 cells. MAP kinase was utilized as a pure protein and lck kinase was immunoprecipitated from peripheral blood lymphocytes of a normal volunteer.
Cells were washed in phosphate buffered saline (PBS) and 0.5-5×10^6 cells were solubilized in 1 ml of the specified cell lysis buffers. Unless otherwise stated, all cell lysis buffers contained the following protease inhibitors: 20 μg/ml leupeptin, 1 μg/ml aprotinin, and 1 mM phenylmethylsulfonylfluroide. For p210^bcr-abl and […] immunoprecipitation, cells were lysed with ABL lysis buffer (25 mM imidazole, pH 7.2, 0.5% NP40, 50 mM NaCl, 1 mM Na3 VO4) and lysates were clarified at 14,000 g. 4° C. for 30 minutes. Cell lysis for all other proteins was performed according to the references describing the various immunoprecipitation kinase assays.
Immunoprecipitation kinase assays of p210^bcr-abl p145^abl were performed as described, with modifications (15). Briefly, for p210^bcr-abl, 1 μg of anti-bcr antibody (clone 7C6, Oncogene Science, Uniondale, N.Y.) was added to lysates prepared from 0.5-1×10^6 K562 cells. […]

5'-GTCCACCATGGCGCGGCCGGC-3' [ODN1] (phosphorothioate caps, further chemistry not given here) [21mer ODN complementary to nucleotides -12 to +9 of the p210bcr-abl mRNA, phosphorothioate capped unless otherwise specified]
total cellular protein phosphotyrosine content ([1]; listed as BCR-AS): dropped significantly; also recorded: reduced protein phosphotyrosine content
total cellular protein phosphotyrosine content ([1]; listed as BCR-AS phosphorothioate capped): equally effective
ability to form colonies in soft agar (K562 cells): inhibited the ability of these cells to form colonies in soft agar
sensitivity of p145^abl compared with p210^bcr-abl (p145^abl kinase): equally sensitive
IC50 (p145^abl kinase; Cerenkov counting of excised gel slices, mean ± SD): 620 ± 240 nM
